Experimental data published in US12202835B2, “Substituted aromatic ring-linked dioxinoquinazolines and dioxinoquinolines as kinase inhibitors” (BEIJING SCITECH-MQ PHARMACEUTICALS LIMITED, priority 2018, dated 2025).

Columns and labels:
c-MET kinase = c-MET kinase (Homo sapiens (Human), UniProt P08581); assay: Assay of small molecular compounds for inhibiting the activity of c-MET kinase (LANCE TR-FRET); format: biochemical; settings: read-out: CMET IC50
Outline: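 LANCE TR-FRET assay with c-MET at 1 nM final after a 5 min room-temperature preincubation with compound (11-point, 3-fold series, 2500–0.042 nM final, 4% DMSO). ULight-JAK-1 (Tyr1023) peptide (100 nM final) and ATP (10 μM final) reacted 60 min in the dark. Inhibition was taken relative to controls, then IC50 fitted.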

[1] = tested on: Ba/F3 LMNA-NTRK1-G595R cells; assay: Assay for inhibiting the proliferation of Ba/F3 LMNA-NTRK1-G595R cells (CCK-8); format: cell-based; settings: Mus musculus, BaF3
Experimental: (§1) In particular, the method of the assay of small molecular compounds for inhibiting cell proliferation is as follows: • 1. Cells cultured to a logarithmic growth phase (adherent cells need to be digested with trypsin and neutralized) were taken, pipetted evenly, transferred to a 15 mL centrifuge tube, and centrifuged at 1000 rpm at room temperature for 4 minutes; • 2. The supernatant was discarded; 5 mL of complete medium was added and pipetted evenly; 10 μL of cell suspension was taken out, mixed well with 10 μL of 0.4% trypan blue, and counted under a cell counter; the proportion of living cells was ensured to be above 90%; • 3. 80 μL of cell suspension per well was seeded into a 96-well plate according to the conditions shown in the attached table, and cultured overnight; in the outer 36 wells of the 96-well plate, no cells were added but only sterile water was added; only the inner 60 wells were used for cell assay and control; • 4. 5×compound dilution: the compounds were serially diluted 3-fold to obtain a total of 9 concentrations; 80-fold overall dilution was completed with complete medium, the resulting concentration was 5 times the final drug concentration, and DMSO concentration was 1.25%; • 5. 20 μL of the corresponding compounds with different concentration gradients were added to each well of assay wells of the 96-well plate; 20 μL of complete medium was added to positive and negative control wells and shaken well; and the final concentration of DMSO in each well was 0.25%; • 6. After 72 hours of incubation, 10 μL of CCK-8 reagent was added to each well and further incubated at 37° C. for 1-2 hours; and the OD value was read at 450 nm; • 7. Cell survival rate (%)=[(As−Ab)/(Ac−Ab)]*100% • As: Assay well (medium containing cells, CCK-8, compound), • Ac: Control well (medium containing cells, CCK-8), • Ab: Blank well (CCK-8, medium without cell and compound), • 8. The values were imported into Graphpad Prism 5 software for IC50 calculation.

Ba/F3 LMNA-NTRK1 cells = assay: Assay for inhibiting the proliferation of Ba/F3 LMNA-NTRK1 cells (CCK-8); format: cell-based; settings: Mus musculus, BaF3
Experimental: as §1, with “5×compound dilution: the compounds were serially diluted 3-fold to obtain a total of 9 concentrations; 80-fold overall dilution was completed with complete medium, the resulting concentration was 5 times the final drug concentration, and DMSO concentration was 1.25%; • 5.” left out

TRKA kinase = TRKA kinase (Homo sapiens (Human), UniProt P04629); assay: Assay of small molecular compounds for inhibiting the activity of TRKA kinase (LANCE TR-FRET); format: biochemical
Outline: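 LANCE TR-FRET with ULight-TK peptide; compounds pre-incubated 5 min with TRKA (2× solution 2 nM), then substrate/ATP added (4× mix: 400 nM peptide, 40 μM ATP). Reaction 60 min at room temperature in dark, 1% DMSO final; stopped, detection developed 60 min, signal read.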

Ba/F3-AXL cells = assay: Assay for inhibiting the proliferation of Ba/F3-AXL cells (CCK-8); format: cell-based; settings: 72 hours of incubation, medium with 100 ng/mL hGas6, CCK-8
Experimental: The values were then imported into Graphpad Prism 5 software for curve fitting, and IC50 was calculated.

VEGFR-2 kinase = VEGFR-2 kinase (Homo sapiens (Human), UniProt P35968); assay: Assay of small molecular compounds for inhibiting the activity of VEGFR-2 kinase (LANCE TR-FRET); format: biochemical; settings: read-out: VEGFR2 IC50
Outline: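 LANCE TR-FRET with human VEGFR-2 (2× stock 0.5 nM) preincubated 30 min with compound (final 2500 to 0.042 nM, 11-point 3-fold), then ULight-JAK-1 (Tyr1023) peptide/ATP added (4× stocks 200 nM/40 μM). Reaction 60 min room temperature, 4% DMSO; IC50 from inhibition-rate curve.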

MHCC97H cells = assay: Assay for inhibiting the proliferation of MHCC97H cells (CCK-8); format: cell-based; settings: Homo sapiens
Experimental: as §1

EBC1 cells = assay: Assay for inhibiting the proliferation of EBC1 cells (CCK-8); format: cell-based; settings: Homo sapiens, EBC-1
Experimental: as §1

TRKA kinase, sequence (P04629 33-796): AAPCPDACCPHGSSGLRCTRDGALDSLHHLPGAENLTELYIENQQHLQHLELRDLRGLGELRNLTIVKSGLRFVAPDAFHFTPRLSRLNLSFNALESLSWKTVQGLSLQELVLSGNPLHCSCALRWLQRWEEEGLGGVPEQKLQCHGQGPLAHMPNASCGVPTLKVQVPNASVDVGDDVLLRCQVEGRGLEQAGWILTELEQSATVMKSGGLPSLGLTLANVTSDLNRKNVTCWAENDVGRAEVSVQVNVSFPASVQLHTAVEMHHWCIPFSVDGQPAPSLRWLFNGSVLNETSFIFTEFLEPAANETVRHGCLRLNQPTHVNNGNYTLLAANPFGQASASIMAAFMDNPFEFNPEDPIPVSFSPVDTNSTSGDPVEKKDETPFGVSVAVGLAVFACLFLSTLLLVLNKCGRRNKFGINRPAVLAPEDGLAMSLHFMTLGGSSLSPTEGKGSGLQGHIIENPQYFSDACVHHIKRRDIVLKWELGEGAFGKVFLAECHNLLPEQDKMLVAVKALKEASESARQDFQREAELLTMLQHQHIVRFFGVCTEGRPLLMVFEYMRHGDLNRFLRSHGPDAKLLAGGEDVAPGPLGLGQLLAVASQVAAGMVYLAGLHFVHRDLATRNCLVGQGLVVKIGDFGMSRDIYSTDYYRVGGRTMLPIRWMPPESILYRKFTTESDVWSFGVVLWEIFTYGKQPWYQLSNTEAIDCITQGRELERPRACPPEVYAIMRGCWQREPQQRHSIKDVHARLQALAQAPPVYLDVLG
c-MET kinase, sequence (P08581 25-1390): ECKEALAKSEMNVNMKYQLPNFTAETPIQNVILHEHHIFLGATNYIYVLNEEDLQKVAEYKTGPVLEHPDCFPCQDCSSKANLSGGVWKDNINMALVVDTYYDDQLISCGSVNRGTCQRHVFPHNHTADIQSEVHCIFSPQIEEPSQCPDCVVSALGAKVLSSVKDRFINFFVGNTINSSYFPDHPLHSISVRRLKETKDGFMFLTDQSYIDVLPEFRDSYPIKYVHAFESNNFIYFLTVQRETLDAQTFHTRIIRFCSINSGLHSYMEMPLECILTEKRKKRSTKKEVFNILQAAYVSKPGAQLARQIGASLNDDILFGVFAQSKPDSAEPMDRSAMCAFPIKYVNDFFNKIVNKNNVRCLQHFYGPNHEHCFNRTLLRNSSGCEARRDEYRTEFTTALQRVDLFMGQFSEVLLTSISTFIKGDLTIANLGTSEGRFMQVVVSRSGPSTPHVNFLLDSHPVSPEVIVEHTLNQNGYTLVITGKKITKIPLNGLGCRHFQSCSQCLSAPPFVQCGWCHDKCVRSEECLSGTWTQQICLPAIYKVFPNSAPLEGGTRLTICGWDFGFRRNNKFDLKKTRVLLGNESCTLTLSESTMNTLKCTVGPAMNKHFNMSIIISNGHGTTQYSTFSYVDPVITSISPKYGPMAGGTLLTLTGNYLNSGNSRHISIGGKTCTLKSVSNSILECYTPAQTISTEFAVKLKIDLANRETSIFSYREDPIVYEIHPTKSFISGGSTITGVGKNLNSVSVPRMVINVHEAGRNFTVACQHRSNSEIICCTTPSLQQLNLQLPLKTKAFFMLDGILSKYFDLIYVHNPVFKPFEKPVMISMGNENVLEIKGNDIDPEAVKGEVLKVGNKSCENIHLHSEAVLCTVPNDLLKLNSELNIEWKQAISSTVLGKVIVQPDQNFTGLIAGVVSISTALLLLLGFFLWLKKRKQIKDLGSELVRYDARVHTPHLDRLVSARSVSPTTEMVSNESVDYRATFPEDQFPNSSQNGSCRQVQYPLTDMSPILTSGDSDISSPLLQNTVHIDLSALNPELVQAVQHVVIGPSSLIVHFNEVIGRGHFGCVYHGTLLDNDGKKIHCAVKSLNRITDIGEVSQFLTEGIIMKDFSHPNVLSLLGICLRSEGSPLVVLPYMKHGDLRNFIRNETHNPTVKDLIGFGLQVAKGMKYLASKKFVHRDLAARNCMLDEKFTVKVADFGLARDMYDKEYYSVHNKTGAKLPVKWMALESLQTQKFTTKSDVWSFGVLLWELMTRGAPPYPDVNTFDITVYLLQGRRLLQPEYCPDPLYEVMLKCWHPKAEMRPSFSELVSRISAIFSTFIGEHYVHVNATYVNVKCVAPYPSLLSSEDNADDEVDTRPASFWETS
VEGFR-2 kinase, sequence (P35968 20-1356): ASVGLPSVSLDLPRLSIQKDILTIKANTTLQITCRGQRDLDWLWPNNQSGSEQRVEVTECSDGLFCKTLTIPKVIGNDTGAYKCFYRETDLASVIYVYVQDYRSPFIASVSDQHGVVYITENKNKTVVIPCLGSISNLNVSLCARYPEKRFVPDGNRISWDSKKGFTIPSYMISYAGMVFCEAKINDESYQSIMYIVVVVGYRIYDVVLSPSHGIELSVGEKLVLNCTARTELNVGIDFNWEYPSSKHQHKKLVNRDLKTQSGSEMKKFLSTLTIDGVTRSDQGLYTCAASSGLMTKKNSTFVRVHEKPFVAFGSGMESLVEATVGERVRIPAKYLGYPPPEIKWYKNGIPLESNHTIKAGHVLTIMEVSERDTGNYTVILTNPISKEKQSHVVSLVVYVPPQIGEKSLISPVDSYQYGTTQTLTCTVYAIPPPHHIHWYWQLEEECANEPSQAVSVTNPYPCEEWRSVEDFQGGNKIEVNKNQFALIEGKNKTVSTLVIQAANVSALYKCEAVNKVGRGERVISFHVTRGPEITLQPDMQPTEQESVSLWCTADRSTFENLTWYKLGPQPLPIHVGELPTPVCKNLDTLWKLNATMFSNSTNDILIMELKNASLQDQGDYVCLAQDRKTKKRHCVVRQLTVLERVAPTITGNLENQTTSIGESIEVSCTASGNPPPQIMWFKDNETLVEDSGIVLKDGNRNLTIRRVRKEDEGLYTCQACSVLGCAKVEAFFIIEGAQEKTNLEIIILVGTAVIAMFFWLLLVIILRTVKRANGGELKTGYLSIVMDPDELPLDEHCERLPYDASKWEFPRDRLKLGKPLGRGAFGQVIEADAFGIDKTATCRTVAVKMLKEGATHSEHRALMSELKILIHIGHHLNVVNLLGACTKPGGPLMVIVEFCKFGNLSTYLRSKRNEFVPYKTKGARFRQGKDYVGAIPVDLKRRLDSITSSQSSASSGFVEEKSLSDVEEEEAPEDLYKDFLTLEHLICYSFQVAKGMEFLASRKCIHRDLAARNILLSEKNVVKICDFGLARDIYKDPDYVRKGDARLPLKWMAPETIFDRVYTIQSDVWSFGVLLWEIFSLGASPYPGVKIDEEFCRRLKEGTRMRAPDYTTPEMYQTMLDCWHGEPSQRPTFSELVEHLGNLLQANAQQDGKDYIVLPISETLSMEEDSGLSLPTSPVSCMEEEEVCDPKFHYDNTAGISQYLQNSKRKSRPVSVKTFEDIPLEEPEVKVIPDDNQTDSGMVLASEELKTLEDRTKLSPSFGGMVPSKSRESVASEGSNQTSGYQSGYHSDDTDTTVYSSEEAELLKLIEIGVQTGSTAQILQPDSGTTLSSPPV

| SMILES | IC50 (c-MET kinase) | IC50 [1] | IC50 (Ba/F3 LMNA-NTRK1 cells) | IC50 (TRKA kinase) | IC50 (Ba/F3-AXL cells) | IC50 (VEGFR-2 kinase) | IC50 (MHCC97H cells) | IC50 (EBC1 cells) |
| --- | --- | --- | --- | --- | --- | --- | --- | --- |
| CCn1cc(C(=O)Nc2ccc(Oc3ccnc4cc(OC)c5c(c34)OCCO5)cc2F)c(=O)n(-c2ccc(F)cc2)c1=O [Example 154, N-(2-fluoro-4-((5-methoxy-2,3-dihydro-[1,4]dioxino[2,3-f]quinolin-10-yl)oxy)phenyl)-3-(4-fluorophenyl)-1-ethyl-2,4-dioxo-1,2,3,4-tetrahydropyrimidine-5-carboxamide] | ≤ 50 nM | 50 to 200 nM | < 50 nM | < 50 nM |  |  |  |  |
| CCn1cc(C(=O)Nc2ccc(Oc3ccnc4ccc5c(c34)OCCO5)cc2)c(=O)n(-c2ccc(F)cc2)c1=O [Example 159, N-(4-((2,3-dihydro-[1,4]dioxino[2,3-f]quinolin-10-yl)oxy)phenyl)-3-(4-fluorophenyl)-1-ethyl-2,4-dioxo-1,2,3,4-tetrahydropyrimidine-5-carboxamide] |  | > 1000 nM | 200 to 1000 nM | 50 to 500 nM |  |  |  |  |
| CN(C)CCCOc1cc2nccc(Oc3ccc(NC(=O)c4cn(C)c(=O)n(-c5ccc(F)cc5)c4=O)cc3F)c2c2c1OCCO2 [Example 86, N-(3-fluoro-4-((5-((3-dimethylamino)propoxy)-2,3-dihydro-[1,4]dioxino[2,3-f]quinolin-10-yl)oxy)phenyl)-3-(4-fluorophenyl)-1-methyl-2,4-dioxo-1,2,3,4-tetrahydropyrimidine-5-carboxamide] |  | 50 to 200 nM | < 50 nM |  | < 50 nM | 50 to 500 nM | 50 to 200 nM | ≤ 50 nM |
| CCn1cc(C(=O)Nc2cc(F)c(Oc3ccnc4cc(OC)c5c(c34)OCCO5)cc2C)c(=O)n(-c2ccc(F)cc2)c1=O [Example 178, N-(5-fluoro-4-((5-methoxy-2,3-dihydro-[1,4]dioxino[2,3-f]quinolin-10-yl)oxy)-2-methylphenyl)-3-(4-fluorophenyl)-1-ethyl-2,4-dioxo-1,2,3,4-tetrahydropyrimidine-5-carboxamide] | ≤ 50 nM | ≤ 50 nM | < 50 nM | < 50 nM |  |  | ≤ 50 nM |  |
| Cn1cc(C(=O)Nc2ccc(Oc3ccnc4ccc5c(c34)OCCO5)cc2)c(=O)n(-c2ccc(F)cc2)c1=O [Example 158, N-(4-((2,3-dihydro-[1,4]dioxino[2,3-f]quinolin-10-yl)oxy)phenyl)-3-(4-fluorophenyl)-1-methyl-2,4-dioxo-1,2,3,4-tetrahydropyrimidine-5-carboxamide] |  | > 1000 nM | 200 to 1000 nM | 50 to 500 nM |  |  |  |  |
